Some test systems named below: HS 578T breast; UO-31 renal; A549 NSCLC; NCI-H226 lung; LOX IMVI melanoma; SF-539 CNS; SW-620 colon; MDA-MB-435; KM12 colon; A498 renal.
Test in all cases: inhibition of tumour cell growth, NCI panel, 48 h

This note sets out measurements from PubChem BioAssay (NCI).

Several values for one entry are separate records, joined by “and”; a condition that tells them apart may be missing. Equal values may be shown once.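 Method: 48-hour compound exposure of cells in 96-well plates, five concentrations, linear interpolation of endpoints. At the GI50, growth is halved. Definition used: TGI = concentration required for complete inhibition of growth.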

For `CCCN(CCC)CCCNCc1cc(I)cc(C)c1O`, the GI50 was 11.1 µM with HS 578T breast; 17200 nM in the test with UO-31 renal; 19.4 µM in the test on A549 NSCLC; 22.3 µM in the test on NCI-H226 lung; 14.6 µM in the test with LOX IMVI melanoma; 14.7 µM in the test on SF-539 CNS. Moreover, the GI50 with SW-620 colon was 14.3 µM; in the test on MDA-MB-435, 12 µM; in the test with KM12 colon, 15 µM; with A498 renal it was 11.6 µM. Moreover, the TGI was determined as 24.6 µM in the test with HS 578T breast; 53.1 µM in the test on UO-31 renal; 42.4 µM in the test with A549 NSCLC; 66.1 µM in the test with NCI-H226 lung; 27.7 µM in the test with LOX IMVI melanoma; 27.9 µM in the test on SF-539 CNS. Also, the TGI was found to be 27.4 µM with SW-620 colon, 24.8 µM in the test with MDA-MB-435, 30 µM with KM12 colon and 23.8 µM with A498 renal.
As to `O=[N+]([O-])c1ccc(Nc2ccccc2-c2ccccc2)c2nonc12`, the GI50 in the test on HS 578T breast was 15.2 µM; in the test on UO-31 renal it was 8140 nM; with A549 NSCLC, 16.7 µM; in the test with NCI-H226 lung, 14 µM; with LOX IMVI melanoma it was 12.8 µM; with SF-539 CNS it was 17 µM. For the same compound, the GI50 in the test on SW-620 colon was 18 µM; in the test with MDA-MB-435 it was 13.9 µM; in the test on KM12 colon it was 13.9 µM; in the test with A498 renal, 14.8 µM. The TGI in the test on HS 578T breast was 62.8 µM; in the test with UO-31 renal, 29.9 µM; with A549 NSCLC it was above 86.8 µM; in the test on NCI-H226 lung, 40.5 µM; in the test on LOX IMVI melanoma it was 26.6 µM; in the test on SF-539 CNS it was 39.9 µM. Besides, the TGI with SW-620 colon turned out to be 44.8 µM; in the test on MDA-MB-435, 45.9 µM; with KM12 colon, 32.5 µM; in the test with A498 renal, 41.6 µM.
Regarding `COc1cccc(C2CC(c3cc(OC)c(OC)c(OC)c3)=NN2)c1` (stereo not given), the GI50 in the test with HS 578T breast was 15.5 µM; with UO-31 renal, 14400 nM; in the test with A549 NSCLC, 21.7 µM; in the test on NCI-H226 lung, 28.9 µM; with LOX IMVI melanoma, 9.49 µM; in the test with SF-539 CNS, 5.33 µM. Besides, the GI50 in the test on SW-620 colon is 3.05 µM; in the test with MDA-MB-435, 2.79 µM; in the test with KM12 colon it was 5.02 µM; with A498 renal it was 12.9 µM. Moreover, the TGI with HS 578T breast was 49.4 µM; with UO-31 renal, 38.8 µM; with A549 NSCLC, 87.2 µM; with NCI-H226 lung, above 100 µM; in the test on LOX IMVI melanoma, 21.8 µM; in the test with SF-539 CNS, 21.1 µM. Moreover, the TGI was 11.5 µM with SW-620 colon, 9.39 µM in the test with MDA-MB-435, 20.4 µM in the test on KM12 colon and 38.6 µM with A498 renal.
Take `Cc1ccc(NCCCN2CCN(CCCNc3ccc(C)c4sc5ccccc5c(=O)c34)CC2)c2c(=O)c3ccccc3sc12`: the TGI with HS 578T breast is 79.6 µM; with UO-31 renal, above 100 µM; with A549 NSCLC, above 100 µM; in the test on NCI-H226 lung, above 100 µM; in the test on LOX IMVI melanoma, above 100 µM; with SF-539 CNS, above 100 µM. Further, the TGI in the test with SW-620 colon, in the test with MDA-MB-435, with KM12 colon and in the test on A498 renal was above 100 µM in each case.
For `C=CC(=O)Nc1ccc(Nc2nccc(-c3ccc(N4CCCC4)c(C#N)c3)n2)cc1`, the GI50 with HS 578T breast is 5.15 µM; in the test on UO-31 renal, 1060 nM; in the test on A549 NSCLC it was 11 µM; in the test with NCI-H226 lung it was above 25 µM; in the test with LOX IMVI melanoma, above 25 µM; in the test on SF-539 CNS, 6.88 µM. In addition, the GI50 was 21.7 µM with SW-620 colon, 7.09 µM in the test on MDA-MB-435, above 25 µM in the test with KM12 colon and 4.82 µM with A498 renal. Moreover, the TGI in the test with HS 578T breast, in the test on UO-31 renal, with A549 NSCLC, with NCI-H226 lung, with LOX IMVI melanoma and in the test on SF-539 CNS was above 25 µM in each case. Besides, the TGI is above 25 µM in the test on SW-620 colon, above 25 µM in the test on MDA-MB-435, above 25 µM in the test on KM12 colon and 24.9 µM with A498 renal.
`CO[C@H](C(=O)[C@@H](O)[C@@H](C)O)[C@@H]1Cc2cc3cc(O[C@H]4C[C@@H](O[C@H]5C[C@@H](O)[C@H](O)C(C)O5)[C@H](O)C(C)O4)c(C)c(O)c3c(O)c2C(=O)[C@H]1O[C@H]1C[C@@H](O[C@H]2C[C@@H](O[C@H]3C[C@@H](OC)[C@H](O)C(C)O3)[C@@H](O)C(C)O2)C(O)(O)C(C)O1` (stereo not given in full): the GI50 in the test on HS 578T breast was 0.118 µM; in the test with UO-31 renal it was 209 nM; with A549 NSCLC, 0.0843 µM; with NCI-H226 lung it was 0.0545 µM; in the test with LOX IMVI melanoma, 0.0745 µM; in the test on SF-539 CNS, 0.0938 µM. The GI50 in the test with SW-620 colon is 0.164 µM; in the test with MDA-MB-435 it was 0.171 µM; in the test with KM12 colon, 0.102 µM; in the test on A498 renal it was 0.0198 µM. The TGI in the test on HS 578T breast was above 7.66 µM; in the test with UO-31 renal, 2.84 µM; with A549 NSCLC, above 25 µM; with NCI-H226 lung, 0.461 µM; with LOX IMVI melanoma it was 3.68 µM; in the test on SF-539 CNS it was 1.68 µM. Moreover, the TGI was above 25 µM in the test with SW-620 colon, 3.53 µM with MDA-MB-435, above 25 µM in the test with KM12 colon and 0.115 µM in the test with A498 renal.
`CN1CCN(c2ccc(C(=O)Nc3n[nH]c4ccc(Cc5cc(F)cc(F)c5)cc34)c(NC3CCOCC3)c2)CC1`: the GI50 with HS 578T breast is 1.23 µM and 1.21 µM; in the test with UO-31 renal, 1030 nM and 1170 nM; with A549 NSCLC, 2.5 µM and 1.3 µM; in the test on NCI-H226 lung, 1.47 µM and 1.36 µM; in the test on LOX IMVI melanoma, 1.35 µM and 1.34 µM; with SF-539 CNS it was 2.66 µM and 1.56 µM. Further, the GI50 with SW-620 colon was 1.32 µM and 1.33 µM; in the test with MDA-MB-435 it was 1.39 µM and 1.49 µM; with KM12 colon, 0.00436 µM; in the test on A498 renal, 1.77 µM and 0.846 µM. Besides, the TGI is 4.37 µM and 3.22 µM in the test with HS 578T breast; 2.28 µM and 2.61 µM in the test on UO-31 renal; > 10 µM and 2.72 µM with A549 NSCLC; > 10 µM and 3.11 µM in the test on NCI-H226 lung; 2.7 µM and 2.69 µM in the test on LOX IMVI melanoma; > 10 µM and 2.92 µM with SF-539 CNS. Also, the TGI was 3.44 µM and 2.76 µM in the test with SW-620 colon; 2.86 µM and 3.13 µM in the test with MDA-MB-435; 1.49 µM and 1.12 µM with KM12 colon; 6.85 µM and 2.24 µM with A498 renal.
For `O=S(=O)(Nc1ncccn1)c1ccc(N=Nc2ccc(O)c3ncccc23)cc1`, the GI50 in the test with HS 578T breast is 3 µM; with UO-31 renal, 1940 nM; in the test with A549 NSCLC, 5.46 µM; in the test with NCI-H226 lung, 13.4 µM; in the test with LOX IMVI melanoma it was 8.7 µM; with SF-539 CNS it was 4.67 µM. Moreover, the GI50 with SW-620 colon was 5.67 µM; with MDA-MB-435, 5.31 µM; with KM12 colon it was 5.87 µM; in the test on A498 renal, 12.5 µM. For the same compound, the TGI in the test on HS 578T breast stood at 13.1 µM; in the test on UO-31 renal it was 12.4 µM; in the test with A549 NSCLC it was 29 µM; in the test with NCI-H226 lung, 30.5 µM; in the test with LOX IMVI melanoma it was 33.7 µM; in the test with SF-539 CNS, 21.9 µM. Besides, the TGI in the test on SW-620 colon came out at 33.7 µM; in the test on MDA-MB-435, 21.8 µM; in the test on KM12 colon it was 29.8 µM; in the test on A498 renal it was 27.2 µM.
